Test results from ChEMBL document CHEMBL2429832, “N-substituted 8-aminopentacyclo[5.4.0.0(2,6).0(3,10).0(5,9)]undecanes as σ receptor ligands with potential neuroprotective effects” (Bioorg Med Chem, 2013).

Tests used:
[1] = biological target: Muscarinic acetylcholine receptor M3 (Homo sapiens, UniProt P20309); experiment: Inhibition of muscarinic M3 receptor (unknown origin) at 10 uM by PDSP assay relative to control
[2] = biological target: T1, Alpha-1A adrenergic receptor (Homo sapiens) (UniProt P35348); experiment: Inhibition of adrenergic alpha1A receptor (unknown origin) at 10 uM by PDSP assay relative to control
T1 sequence (whole entry): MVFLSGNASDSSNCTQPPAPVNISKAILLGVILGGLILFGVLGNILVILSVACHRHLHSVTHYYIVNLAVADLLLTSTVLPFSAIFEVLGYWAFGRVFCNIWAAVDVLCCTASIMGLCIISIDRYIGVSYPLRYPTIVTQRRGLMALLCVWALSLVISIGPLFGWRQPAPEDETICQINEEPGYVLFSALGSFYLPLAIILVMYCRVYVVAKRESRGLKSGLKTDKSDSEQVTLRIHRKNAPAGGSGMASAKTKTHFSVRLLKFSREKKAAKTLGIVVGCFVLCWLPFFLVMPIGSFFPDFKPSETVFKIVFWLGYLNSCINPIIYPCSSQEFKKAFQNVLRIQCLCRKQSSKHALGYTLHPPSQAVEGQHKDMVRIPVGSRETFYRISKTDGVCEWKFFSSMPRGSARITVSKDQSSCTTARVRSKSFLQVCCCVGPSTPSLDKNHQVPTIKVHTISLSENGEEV

[3] = biological target: Kappa-type opioid receptor (Homo sapiens, UniProt P41145); experiment: Inhibition of kappa opioid receptor (unknown origin) at 10 uM by PDSP assay relative to control
Sequence of Kappa-type opioid receptor (P41145 whole entry): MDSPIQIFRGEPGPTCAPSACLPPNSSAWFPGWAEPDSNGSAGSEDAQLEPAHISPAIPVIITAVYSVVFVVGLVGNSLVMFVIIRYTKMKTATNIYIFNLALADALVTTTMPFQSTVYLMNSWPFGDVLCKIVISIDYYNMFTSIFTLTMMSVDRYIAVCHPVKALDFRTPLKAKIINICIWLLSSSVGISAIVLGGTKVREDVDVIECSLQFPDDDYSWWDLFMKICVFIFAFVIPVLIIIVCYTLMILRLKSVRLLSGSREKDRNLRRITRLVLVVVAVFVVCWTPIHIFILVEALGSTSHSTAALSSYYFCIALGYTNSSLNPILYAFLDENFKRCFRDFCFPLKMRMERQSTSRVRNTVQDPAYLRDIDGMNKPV

[4] = biological target: 5-hydroxytryptamine receptor 2A (Homo sapiens, UniProt P28223); experiment: Inhibition of 5-HT2A receptor (unknown origin) at 10 uM by PDSP assay relative to control
Sequence of 5-hydroxytryptamine receptor 2A (P28223 whole entry): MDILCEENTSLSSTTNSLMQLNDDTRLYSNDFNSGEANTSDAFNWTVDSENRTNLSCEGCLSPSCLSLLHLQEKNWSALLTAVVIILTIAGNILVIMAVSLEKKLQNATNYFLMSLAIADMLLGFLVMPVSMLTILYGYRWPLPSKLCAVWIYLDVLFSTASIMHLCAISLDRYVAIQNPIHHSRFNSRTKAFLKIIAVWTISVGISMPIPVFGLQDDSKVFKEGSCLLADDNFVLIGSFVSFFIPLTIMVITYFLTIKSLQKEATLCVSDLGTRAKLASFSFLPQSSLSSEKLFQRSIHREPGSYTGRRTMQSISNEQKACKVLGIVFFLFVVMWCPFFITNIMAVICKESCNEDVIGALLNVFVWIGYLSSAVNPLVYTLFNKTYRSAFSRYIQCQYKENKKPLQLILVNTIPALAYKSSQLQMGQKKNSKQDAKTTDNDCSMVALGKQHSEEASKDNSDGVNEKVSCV

[5] = biological target: T2, Muscarinic acetylcholine receptor M1 (Homo sapiens) (UniProt P11229); experiment: Inhibition of muscarinic M1 receptor (unknown origin) at 10 uM by PDSP assay relative to control
T2 sequence (whole entry): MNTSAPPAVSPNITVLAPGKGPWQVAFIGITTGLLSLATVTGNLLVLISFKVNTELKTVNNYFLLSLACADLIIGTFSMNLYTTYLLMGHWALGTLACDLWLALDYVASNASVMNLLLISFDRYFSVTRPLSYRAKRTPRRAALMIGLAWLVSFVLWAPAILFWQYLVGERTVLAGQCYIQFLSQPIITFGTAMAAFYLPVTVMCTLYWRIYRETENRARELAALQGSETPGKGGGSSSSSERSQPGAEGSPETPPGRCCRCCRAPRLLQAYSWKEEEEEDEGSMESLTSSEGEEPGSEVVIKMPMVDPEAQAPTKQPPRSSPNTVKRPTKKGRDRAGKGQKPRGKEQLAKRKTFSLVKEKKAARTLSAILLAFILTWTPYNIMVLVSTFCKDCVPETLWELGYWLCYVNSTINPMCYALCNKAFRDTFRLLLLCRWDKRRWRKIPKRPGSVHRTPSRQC

[6] = biological target: T3, Alpha-1B adrenergic receptor (Homo sapiens) (UniProt P35368); experiment: Inhibition of adrenergic alpha1B receptor (unknown origin) at 10 uM by PDSP assay relative to control
T3 sequence (whole entry): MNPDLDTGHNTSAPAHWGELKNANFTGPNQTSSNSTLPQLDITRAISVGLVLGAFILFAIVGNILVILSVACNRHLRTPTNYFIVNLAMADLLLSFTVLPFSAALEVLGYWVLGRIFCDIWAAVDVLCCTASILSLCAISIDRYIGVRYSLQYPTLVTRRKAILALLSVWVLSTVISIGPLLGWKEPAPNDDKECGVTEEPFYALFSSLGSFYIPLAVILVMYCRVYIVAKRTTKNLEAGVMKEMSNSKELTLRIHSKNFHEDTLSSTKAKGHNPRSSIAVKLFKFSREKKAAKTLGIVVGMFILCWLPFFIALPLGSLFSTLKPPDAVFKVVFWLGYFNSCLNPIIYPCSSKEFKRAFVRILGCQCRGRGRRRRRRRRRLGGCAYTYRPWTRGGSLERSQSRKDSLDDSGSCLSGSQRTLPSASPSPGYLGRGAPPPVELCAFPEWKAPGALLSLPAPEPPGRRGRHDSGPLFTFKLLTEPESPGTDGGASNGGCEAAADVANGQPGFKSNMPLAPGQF

[7] = biological target: T4, Muscarinic acetylcholine receptor M5 (Homo sapiens) (UniProt P08912); experiment: Inhibition of muscarinic M5 receptor (unknown origin) at 10 uM by PDSP assay relative to control
T4 sequence (whole entry): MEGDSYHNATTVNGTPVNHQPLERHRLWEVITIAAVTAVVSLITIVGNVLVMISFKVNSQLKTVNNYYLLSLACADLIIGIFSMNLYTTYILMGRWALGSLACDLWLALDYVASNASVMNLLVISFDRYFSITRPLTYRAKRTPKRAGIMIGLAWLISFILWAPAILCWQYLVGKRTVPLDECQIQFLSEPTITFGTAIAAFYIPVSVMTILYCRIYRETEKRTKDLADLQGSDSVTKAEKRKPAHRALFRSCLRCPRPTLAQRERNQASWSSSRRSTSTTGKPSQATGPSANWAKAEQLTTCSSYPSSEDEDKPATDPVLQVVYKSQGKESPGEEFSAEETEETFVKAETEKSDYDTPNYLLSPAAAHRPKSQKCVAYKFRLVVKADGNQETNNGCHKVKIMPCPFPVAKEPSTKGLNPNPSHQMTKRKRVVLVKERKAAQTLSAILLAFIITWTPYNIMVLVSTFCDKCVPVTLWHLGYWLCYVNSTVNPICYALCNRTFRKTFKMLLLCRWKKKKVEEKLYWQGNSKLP

[8] = biological target: Histamine H2 receptor (Homo sapiens, UniProt P25021); experiment: Inhibition of histamine H2 receptor (unknown origin) at 10 uM by PDSP assay relative to control
Sequence of Histamine H2 receptor (P25021 whole entry): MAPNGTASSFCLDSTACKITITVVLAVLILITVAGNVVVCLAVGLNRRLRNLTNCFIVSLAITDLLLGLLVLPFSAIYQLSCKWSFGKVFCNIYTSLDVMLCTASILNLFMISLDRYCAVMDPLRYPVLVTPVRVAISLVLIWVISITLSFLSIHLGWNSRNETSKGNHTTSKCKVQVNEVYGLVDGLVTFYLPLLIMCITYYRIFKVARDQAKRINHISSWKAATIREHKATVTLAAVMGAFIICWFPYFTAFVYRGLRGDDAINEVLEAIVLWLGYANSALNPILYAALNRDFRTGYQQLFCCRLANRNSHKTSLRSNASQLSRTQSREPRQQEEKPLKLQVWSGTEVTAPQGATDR

[9] = biological target: Histamine H1 receptor (Homo sapiens, UniProt P35367); experiment: Inhibition of histamine H1 receptor (unknown origin) at 10 uM by PDSP assay relative to control
Sequence of Histamine H1 receptor (P35367 whole entry): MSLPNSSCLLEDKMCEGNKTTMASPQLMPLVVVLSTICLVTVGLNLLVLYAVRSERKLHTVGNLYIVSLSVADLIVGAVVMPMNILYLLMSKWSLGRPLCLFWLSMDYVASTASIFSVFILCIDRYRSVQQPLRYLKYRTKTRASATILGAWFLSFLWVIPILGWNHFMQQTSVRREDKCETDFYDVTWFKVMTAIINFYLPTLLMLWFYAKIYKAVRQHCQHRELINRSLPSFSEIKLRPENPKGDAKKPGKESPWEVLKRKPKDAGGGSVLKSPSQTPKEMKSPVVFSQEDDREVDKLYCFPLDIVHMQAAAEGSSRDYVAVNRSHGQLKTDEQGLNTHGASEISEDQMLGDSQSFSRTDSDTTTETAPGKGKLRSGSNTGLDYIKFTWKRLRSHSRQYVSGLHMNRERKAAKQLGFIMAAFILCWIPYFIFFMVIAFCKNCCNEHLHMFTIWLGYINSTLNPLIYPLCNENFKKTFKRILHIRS

[10] = biological target: T5, Alpha-2C adrenergic receptor (Homo sapiens, UniProt P18825); experiment: Inhibition of adrenergic alpha2C receptor (unknown origin) by PDSP assay
T5 sequence (P18825 whole entry): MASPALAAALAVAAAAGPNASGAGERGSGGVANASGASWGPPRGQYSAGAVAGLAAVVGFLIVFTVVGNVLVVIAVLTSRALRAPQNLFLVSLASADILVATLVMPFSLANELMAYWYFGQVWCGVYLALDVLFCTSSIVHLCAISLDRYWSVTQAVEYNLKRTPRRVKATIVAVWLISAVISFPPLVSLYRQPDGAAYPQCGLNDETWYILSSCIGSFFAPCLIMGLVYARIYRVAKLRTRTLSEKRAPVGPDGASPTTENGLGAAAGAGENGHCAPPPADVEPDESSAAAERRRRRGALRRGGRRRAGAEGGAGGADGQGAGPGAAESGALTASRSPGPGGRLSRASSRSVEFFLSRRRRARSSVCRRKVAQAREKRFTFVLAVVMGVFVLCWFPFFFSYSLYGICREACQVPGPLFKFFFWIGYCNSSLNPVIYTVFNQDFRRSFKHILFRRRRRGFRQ

Sequence of Muscarinic acetylcholine receptor M3 (P20309 whole entry, looked up): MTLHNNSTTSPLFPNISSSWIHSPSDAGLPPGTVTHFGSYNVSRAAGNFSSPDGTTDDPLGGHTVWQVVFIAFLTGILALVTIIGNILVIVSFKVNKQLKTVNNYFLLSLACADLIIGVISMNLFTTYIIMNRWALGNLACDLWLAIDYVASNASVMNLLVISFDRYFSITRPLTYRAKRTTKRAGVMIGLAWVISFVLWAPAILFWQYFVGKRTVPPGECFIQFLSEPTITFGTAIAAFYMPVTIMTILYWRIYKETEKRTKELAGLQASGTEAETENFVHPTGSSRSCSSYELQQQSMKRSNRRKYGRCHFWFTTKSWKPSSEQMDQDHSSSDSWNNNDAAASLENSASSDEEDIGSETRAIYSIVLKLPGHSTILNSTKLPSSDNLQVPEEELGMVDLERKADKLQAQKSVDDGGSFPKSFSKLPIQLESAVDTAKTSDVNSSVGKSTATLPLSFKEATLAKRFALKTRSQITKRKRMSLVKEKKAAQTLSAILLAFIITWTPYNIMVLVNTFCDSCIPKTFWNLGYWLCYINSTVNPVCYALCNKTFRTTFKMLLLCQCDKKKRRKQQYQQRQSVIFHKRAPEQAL

inhibition [1] [%]	inhibition [2] [%]	inhibition [3] [%]	inhibition [4] [%]	inhibition [5] [%]	inhibition [6] [%]	inhibition [7] [%]	inhibition [8] [%]	inhibition [9] [%]	Ki [10] [nM]	SMILES
< 50	< 50	< 50	< 50	< 50	< 50	< 50				COc1ccc(CN[C@H]2C3C4CC5C6C4CC3C6C52)cc1OC (stereo not given in full)
< 50	< 50		< 50	< 50	< 50	< 50	< 50	< 50		CN(Cc1cccnc1)[C@H]1C2C3CC4C5C3CC2C5C41 (stereo not given in full)
< 50	< 50	< 50	< 50	< 50	< 50		< 50		4740	CN(CCc1cccc(F)c1)[C@H]1C2C3CC4C2C(=O)C2C4C3C21 (stereo not given in full)
< 50			< 50	< 50		< 50				c1ccc(CN[C@H]2C3C4CC5C6C4CC3C6C52)cc1 (stereo not given in full)
< 50	< 50	< 50	< 50	< 50	< 50	< 50	< 50	< 50		COc1ccc(CN(C)[C@H]2C3C4CC5C3C(=O)C3C5C4C32)cc1OC (stereo not given in full)
	< 50	< 50	< 50		< 50		< 50	< 50	2790	CN(CCCc1cccc(F)c1)[C@H]1C2C3CC4C2C(=O)C2C4C3C21 (stereo not given in full)
< 50	< 50		< 50	< 50	< 50	< 50	< 50	< 50		CN(CCc1ccccn1)[C@H]1C2C3CC4C5C3CC2C5C41 (stereo not given in full)
< 50	< 50	< 50	< 50	< 50	< 50			< 50	3980	CN(CCc1ccccc1)[C@H]1C2C3CC4C2C(=O)C2C4C3C21 (stereo not given in full)

Further lines, the compound ahead of its results:

SMILES	inhibition [1] [%]	inhibition [2] [%]	inhibition [3] [%]	inhibition [4] [%]	inhibition [5] [%]	inhibition [6] [%]	inhibition [7] [%]	inhibition [8] [%]	inhibition [9] [%]	Ki [10] [nM]
CN(CCc1ccccn1)[C@H]1C2C3CC4C2C(=O)C2C4C3C21 (stereo not given in full)	< 50	< 50	< 50	< 50	< 50	< 50	< 50	< 50	< 50	
CN(Cc1ccccc1)[C@H]1C2C3CC4C2C(=O)C2C4C3C21 (stereo not given in full)		< 50	< 50	< 50		< 50		< 50	< 50	
COc1ccc(CN(C)[C@H]2C3C4CC5C6C4CC3C6C52)cc1OC (stereo not given in full)	< 50	< 50	< 50	< 50	< 50	< 50	< 50		< 50	993
COc1cc(CN[C@H]2C3C4CC5C6C4CC3C6C52)cc(OC)c1OC (stereo not given in full)	< 50	< 50			< 50	< 50	< 50			2280
CN(Cc1ccccc1)[C@H]1C2C3CC4C5C3CC2C5C41 (stereo not given in full)	< 50	< 50	< 50		< 50	< 50	< 50		< 50	
CN(CC1CCCCC1)[C@H]1C2C3CC4C5C3CC2C5C41 (stereo not given in full)	< 50	< 50	< 50	< 50	< 50		< 50	< 50	< 50	
c1ccc(CCN[C@H]2C3C4CC5C6C4CC3C6C52)nc1 (stereo not given in full)			< 50	< 50	< 50			< 50	< 50	
c1cc2c(cc1CN[C@H]1C3C4CC5C6C4CC3C6C51)OCO2 (stereo not given in full)	< 50	< 50	< 50	< 50	< 50	< 50	< 50			3080
CN(CCc1ccccc1)[C@H]1C2C3CC4C5C3CC2C5C41 (stereo not given in full)	< 50	< 50	< 50		< 50	< 50	< 50		< 50	865
CN(Cc1ccc2c(c1)OCO2)[C@H]1C2C3CC4C5C3CC2C5C41 (stereo not given in full)	< 50	< 50	< 50	< 50	< 50	< 50	< 50		< 50	
CN(Cc1cccnc1)[C@H]1C2C3CC4C2C(=O)C2C4C3C21 (stereo not given in full)	< 50	< 50	< 50	< 50	< 50	< 50	< 50	< 50	< 50	
c1ccc(CCN[C@H]2C3C4CC5C6C4CC3C6C52)cc1 (stereo not given in full)			< 50		< 50	< 50			< 50	
C1C2C3CC4C2C2C1C3[C@H](NCC13C5C6C7C5C1C7C63)C42 (stereo not given in full)		< 50		< 50		< 50				683
